Reference: patent publication US20070196811A1, “Use Of Flavanol Derivatives For The Cryopreservation Of Living Cells” (priority 2004, published 2007)

System: spermatozoa
Assay: Post-thaw sperm motility after freezing in supplemented CryoProtec medium, analyzed by CASA
Type: cell-based
Conditions: for Percentage of motile spermatozoa: thawed after 24 h in liquid nitrogen, mean±SD, 5 experiments; for velocity parameters, including linear velocity (VSL) and lateral head displacement (AHL): post-thaw, Cryoprotec medium supplemented with compound
Description: Aliquots of 50 μL of solutions of different 4-thioderivatives of flavan-3-ol of formula (I) hereof dissolved in PureSperm Wash medium (Nidacon International, Sweden), were added to 0.95 mL of the spermatozoa suspension (50 millions/mL) in CryoProtec freezing medium (Nidacon International, Sweden) in 1.8 mL Nunc vials in order to obtain final concentrations of 1, 10, 25, 50 and 100 μg/mL. Aliquots of 50 μL of solutions of (−)-epicatechin, a natural flavan-3-ol, were treated in the same way. As a control, 50 μL of PureSperm Wash medium (Nidacon International) were added instead of the solutions of the compounds of the invention (0 μg/mL). The percentage of motile cells in the different cellular suspensions was analyzed by CASA (Computer-Assisted Sperm Analysis) using an IVOS-IDENT (Hamilton-Thorn, Beverly, Mass.).
The cellular suspensions were processed for freezing using a standard freezing gradient as follows: cooling from room temperature to 4° C. in 30 min, from 4° C. to 0° C. in 3 min and immediately transferred to liquid nitrogen tanks. After 24 h in liquid nitrogen, the samples were thawed in a water bath at 37° C.
The percentage of motile spermatozoa in the different samples obtained above was analyzed by CASA. Since vials corresponding to the different compounds were in different boxes inside the nitrogen tanks, a control was used for each group of compounds.
Values are the mean±SD from a total of 5 experiments per concentration.

[1] = 1 μg/mL (approximate) compound in freezing medium
[2] = 10 μg/mL (approximate) compound in freezing medium
[3] = 25 μg/mL (approximate) compound in freezing medium
[4] = 50 μg/mL (approximate) compound in freezing medium
[5] = 100 μg/mL (approximate) compound in freezing medium

Row | Structure (SMILES) | Percentage of motile spermatozoa [1] [%] | Percentage of motile spermatozoa [2] [%] | Percentage of motile spermatozoa [3] [%] | Percentage of motile spermatozoa [4] [%] | Percentage of motile spermatozoa [5] [%] | velocity parameters, including linear velocity (VSL) and lateral head displacement (AHL) | post-thaw motility recovery versus control ((−)-epicatechin versus control, all concentrations) | protection, evaluated in terms of sperm motility (concentrations ranging from 1 to 100 μg/mL) | storage stabilizing cryoprotective effect (summary statement)
1 | N[C@@H](CS[C@H]1c2c(O)cc(O)cc2O[C@H](c2ccc(O)c(O)c2)[C@@H]1O)C(=O)O [4β-(S-cysteinyl)epicatechin] | 47.6 ± 3.0 | 52.0 ± 2.3 | 61.8 ± 2.6 | 69.8 ± 3.2 | 70.2 ± 2.8 | significantly higher |  |  | 
2 | Oc1cc(O)c2c(c1)O[C@H](c1ccc(O)c(O)c1)[C@H](O)C2 [(−)-epicatechin, reference compound] | 46.8 ± 1.9 | 47.0 ± 2.2 | 47.6 ± 3.2 | 47.4 ± 2.6 | 46.8 ± 1.3 |  | No significant differences | no significant protection | no significant storage stabilizing cryoprotective effect
3 | COC(=O)[C@H](CS[C@H]1c2c(O)cc(O)cc2O[C@H](c2ccc(O)c(O)c2)[C@@H]1O)NC(C)=O [Example 4, 4β-[S—(N-acetyl-O-methyl-cysteinyl)]epicatechin] | 47.6 ± 3.7 | 49.8 ± 3.0 | 54.8 ± 5.2 | 59.4 ± 3.3 | 59.2 ± 2.8 | significantly higher |  |  | 
